Numbers after ± are expanded uncertainties.
Assay: refractive index (Na D-line) (dimensionless); xn = mol fraction of the nth substance listed
Conditions: 101 kPa, Liquid, Standard Abbe refractometry

COCCOCCOCCOCCOC [2,5,8,11,14-pentaoxapentadecane] + CCCCO
refractive index (288.15 K, x2 = 0): 1.4345 ± 0.00033 | refractive index (288.15 K, x2 = 0.1013): 1.43292 ± 0.00033 | refractive index (288.15 K, x2 = 0.2236): 1.43083 ± 0.00033 | refractive index (288.15 K, x2 = 0.3036): 1.42941 ± 0.00033 | refractive index (288.15 K, x2 = 0.4131): 1.42694 ± 0.00033 | refractive index (288.15 K, x2 = 0.5065): 1.42465 ± 0.00033 | refractive index (288.15 K, x2 = 0.5996): 1.42188 ± 0.00033 | refractive index (288.15 K, x2 = 0.7007): 1.41822 ± 0.00033 | refractive index (288.15 K, x2 = 0.7991): 1.41381 ± 0.00033 | refractive index (288.15 K, x2 = 0.8996): 1.40823 ± 0.00033 | refractive index (293.15 K, x2 = 0): 1.43238 ± 0.00033 | refractive index (293.15 K, x2 = 0.1013): 1.43079 ± 0.00033 | refractive index (293.15 K, x2 = 0.2236): 1.42871 ± 0.00033 | refractive index (293.15 K, x2 = 0.3036): 1.4273 ± 0.00033 | refractive index (293.15 K, x2 = 0.4131): 1.42482 ± 0.00033 | refractive index (293.15 K, x2 = 0.5065): 1.42256 ± 0.00033 | refractive index (293.15 K, x2 = 0.5996): 1.41981 ± 0.00033 | refractive index (293.15 K, x2 = 0.7007): 1.41614 ± 0.00033 | refractive index (293.15 K, x2 = 0.7991): 1.41175 ± 0.00033 | refractive index (293.15 K, x2 = 0.8996): 1.40619 ± 0.00033 | refractive index (298.15 K, x2 = 0): 1.43027 ± 0.00033 | refractive index (298.15 K, x2 = 0.1013): 1.42868 ± 0.00033 | refractive index (298.15 K, x2 = 0.2236): 1.42659 ± 0.00033 | refractive index (298.15 K, x2 = 0.3036): 1.42517 ± 0.00033 | refractive index (298.15 K, x2 = 0.4131): 1.42271 ± 0.00033 | refractive index (298.15 K, x2 = 0.5065): 1.42044 ± 0.00033 | refractive index (298.15 K, x2 = 0.5996): 1.41772 ± 0.00033 | refractive index (298.15 K, x2 = 0.7007): 1.41408 ± 0.00033 | refractive index (298.15 K, x2 = 0.7991): 1.40972 ± 0.00033 | refractive index (298.15 K, x2 = 0.8996): 1.40418 ± 0.00033 | refractive index (303.15 K, x2 = 0): 1.42815 ± 0.00033 | refractive index (303.15 K, x2 = 0.1013): 1.42658 ± 0.00033 | refractive index (303.15 K, x2 = 0.2236): 1.42448 ± 0.00033 | refractive index (303.15 K, x2 = 0.3036): 1.42306 ± 0.00033 | refractive index (303.15 K, x2 = 0.4131): 1.42058 ± 0.00033 | refractive index (303.15 K, x2 = 0.5065): 1.4183 ± 0.00033 | refractive index (303.15 K, x2 = 0.5996): 1.41558 ± 0.00033 | refractive index (303.15 K, x2 = 0.7007): 1.41199 ± 0.00033 | refractive index (303.15 K, x2 = 0.7991): 1.40769 ± 0.00033 | refractive index (303.15 K, x2 = 0.8996): 1.40216 ± 0.00033 | refractive index (308.15 K, x2 = 0): 1.42603 ± 0.00033 | refractive index (308.15 K, x2 = 0.1013): 1.42448 ± 0.00033 | refractive index (308.15 K, x2 = 0.2236): 1.42237 ± 0.00033 | refractive index (308.15 K, x2 = 0.3036): 1.42094 ± 0.00033 | refractive index (308.15 K, x2 = 0.4131): 1.41846 ± 0.00033 | refractive index (308.15 K, x2 = 0.5065): 1.41616 ± 0.00033 | refractive index (308.15 K, x2 = 0.5996): 1.41346 ± 0.00033 | refractive index (308.15 K, x2 = 0.7007): 1.40985 ± 0.00033 | refractive index (308.15 K, x2 = 0.7991): 1.40559 ± 0.00033 | refractive index (308.15 K, x2 = 0.8996): 1.40005 ± 0.00033 | refractive index (313.15 K, x2 = 0): 1.42394 ± 0.00033 | refractive index (313.15 K, x2 = 0.1013): 1.42237 ± 0.00033 | refractive index (313.15 K, x2 = 0.2236): 1.42024 ± 0.00033 | refractive index (313.15 K, x2 = 0.3036): 1.41881 ± 0.00033 | refractive index (313.15 K, x2 = 0.4131): 1.41635 ± 0.00033 | refractive index (313.15 K, x2 = 0.5065): 1.41403 ± 0.00033 | refractive index (313.15 K, x2 = 0.5996): 1.41132 ± 0.00033 | refractive index (313.15 K, x2 = 0.7007): 1.40775 ± 0.00033 | refractive index (313.15 K, x2 = 0.7991): 1.40349 ± 0.00033 | refractive index (313.15 K, x2 = 0.8996): 1.39795 ± 0.00033 | refractive index (318.15 K, x2 = 0): 1.42183 ± 0.00033 | refractive index (318.15 K, x2 = 0.1013): 1.42027 ± 0.00033 | refractive index (318.15 K, x2 = 0.2236): 1.41815 ± 0.00033 | refractive index (318.15 K, x2 = 0.3036): 1.41673 ± 0.00033 | refractive index (318.15 K, x2 = 0.4131): 1.41424 ± 0.00033 | refractive index (318.15 K, x2 = 0.5065): 1.41192 ± 0.00033 | refractive index (318.15 K, x2 = 0.5996): 1.40924 ± 0.00033 | refractive index (318.15 K, x2 = 0.7007): 1.40562 ± 0.00033 | refractive index (318.15 K, x2 = 0.7991): 1.40133 ± 0.00033 | refractive index (318.15 K, x2 = 0.8996): 1.39583 ± 0.00033 | refractive index (323.15 K, x2 = 0): 1.41973 ± 0.00033 | refractive index (323.15 K, x2 = 0.1013): 1.41818 ± 0.00033 | refractive index (323.15 K, x2 = 0.2236): 1.41604 ± 0.00033 | refractive index (323.15 K, x2 = 0.3036): 1.41461 ± 0.00033 | refractive index (323.15 K, x2 = 0.4131): 1.4121 ± 0.00033 | refractive index (323.15 K, x2 = 0.5065): 1.40977 ± 0.00033 | refractive index (323.15 K, x2 = 0.5996): 1.40709 ± 0.00033 | refractive index (323.15 K, x2 = 0.7007): 1.40351 ± 0.00033 | refractive index (323.15 K, x2 = 0.7991): 1.39924 ± 0.00033 | refractive index (323.15 K, x2 = 0.8996): 1.39374 ± 0.00033 | refractive index (328.15 K, x2 = 0): 1.41765 ± 0.00033 | refractive index (328.15 K, x2 = 0.1013): 1.41611 ± 0.00033 | refractive index (328.15 K, x2 = 0.2236): 1.41396 ± 0.00033 | refractive index (328.15 K, x2 = 0.3036): 1.41251 ± 0.00033 | refractive index (328.15 K, x2 = 0.4131): 1.40998 ± 0.00033 | refractive index (328.15 K, x2 = 0.5065): 1.40763 ± 0.00033 | refractive index (328.15 K, x2 = 0.5996): 1.40491 ± 0.00033 | refractive index (328.15 K, x2 = 0.7007): 1.40133 ± 0.00033 | refractive index (328.15 K, x2 = 0.7991): 1.39712 ± 0.00033 | refractive index (328.15 K, x2 = 0.8996): 1.3916 ± 0.00033 | refractive index (333.15 K, x2 = 0): 1.41553 ± 0.00033 | refractive index (333.15 K, x2 = 0.1013): 1.41403 ± 0.00033 | refractive index (333.15 K, x2 = 0.2236): 1.41186 ± 0.00033 | refractive index (333.15 K, x2 = 0.3036): 1.4104 ± 0.00033 | refractive index (333.15 K, x2 = 0.4131): 1.40784 ± 0.00033 | refractive index (333.15 K, x2 = 0.5065): 1.40547 ± 0.00033 | refractive index (333.15 K, x2 = 0.5996): 1.40273 ± 0.00033 | refractive index (333.15 K, x2 = 0.7007): 1.39917 ± 0.00033 | refractive index (333.15 K, x2 = 0.7991): 1.39497 ± 0.00033 | refractive index (333.15 K, x2 = 0.8996): 1.38936 ± 0.00033
